This note sets out measurements from ChEMBL document CHEMBL1142203, “Antiviral activities of novel 5-phosphono-pent-2-en-1-yl nucleosides and their alkoxyalkyl phosphonoesters” (Antimicrob Agents Chemother, 2007).

One data set has as its system Vaccinia virus. Briefly: Antiviral activity against Vaccinia virus Copenhagen in HFF cells by plaque reduction assay. In kind it is functional, organism-based. As to conditions: Orthopoxvirus vaccinia.
The test system of a further data set is Human alphaherpesvirus 1. Briefly: Antiviral activity against HSV1 in MRC5 cells by DNA reduction assay. In kind it is functional, organism-based. Particulars: Human alphaherpesvirus 1, MRC5.
Data set [1] in a line: Cytotoxicity against HepG2 2.2.15 cells assessed as inhibition of uptake of neutral red dye after 24 hrs. In kind it is cell-based. As to conditions: human.
The test system of a further data set is Human betaherpesvirus 5. Briefly: Antiviral activity against HCMV AD169 in HFF cells by plaque reduction assay. Particulars: Human betaherpesvirus 5, AD169, HFF. Type of data set: functional, organism-based. Background: In a plaque reduction assay, fewer plaques than in the control indicate reduced infectivity or spread.
Data set [2] can be described thus: Cytotoxicity against HFF cells by neutral red uptake assay. In kind it is cell-based. As to conditions: human.
Data set [3] in a line: Cytotoxicity against plated MRC5 cells by neutral red uptake assay. As to conditions: human. Type of data set: cell-based.
The next data set has as its system Cowpox virus. Briefly: Antiviral activity against Cowpox virus Brighton in HFF cells by plaque reduction assay. Type of data set: functional, organism-based.
For another data set, the system named is Human alphaherpesvirus 3. Briefly: Antiviral activity against VZV Ellen in HFF cell by CPE assay. Type of data set: functional, organism-based. As to conditions: Human alphaherpesvirus 3, Ellen.
The test system of data set [4] is Hepatitis B virus. In words: Antiviral activity against HBV in HepG2 2.2.15 cells after 24 hrs by DNA reduction assay. Type of data set: functional, organism-based. As to conditions: HepG2, 24 h.
In data set [5] the test system is Hepatitis B virus. Briefly: Antiviral activity against HBV with lamivudine-resistant polymerase M204V mutant in Huh7 cells after 5 days. Type of data set: functional, organism-based. Particulars: Huh-7, 120 h.
For a further data set, the system named is Human gammaherpesvirus 4. Briefly: Antiviral activity against EBV in Daudi cells by ELISA. Type of data set: functional, organism-based. As to conditions: human gammaherpesvirus 4, Daudi. For orientation: An ELISA detects its analyte on a solid surface through an enzyme-linked reagent.
The test system of data set [6] is Hepatitis B virus. Briefly: Antiviral activity against HBV with […]-resistant polymerase N236T mutant in Huh7 cells after 5 days. In kind it is functional, organism-based. As to conditions: Huh-7, 120 h.
The subject of data set [7] is Hepatitis B virus. Briefly: Antiviral activity against HBV with lamivudine-resistant polymerase L180M mutant in Huh7 cells after 5 days. In kind it is functional, organism-based. Particulars: Huh-7, 120 h.
The nature of data set [8]: Cytotoxicity against Daudi cells. As to conditions: human. In kind it is cell-based.
Data set [9] deals with Hepatitis B virus. In words: Antiviral activity against HBV with lamivudine-resistant polymerase M204I mutant in Huh7 cells after 5 days. In kind it is functional, organism-based. As to conditions: Huh-7, 120 h.
The subject of data set [10] is Hepatitis B virus. In words: Antiviral activity against wild type HBV in Huh7 cells after 5 days. In kind it is functional, organism-based. Particulars: Huh-7, 120 h.
The nature of data set [11]: Cytotoxicity against Huh7 cells. Type of data set: cell-based, Huh-7. As to conditions: human.
The test system of data set [12] is Hepatitis B virus. Briefly: Antiviral activity against HBV with lamivudine-resistant polymerase L180M/M204V double mutant in Huh7 cells after 5 days. Particulars: Huh-7, 120 h. Type of data set: functional, organism-based.
Data set [13] in a line: Selectivity index, ratio of CC50 for HepG2 2.2.15 cells to EC50 for HBV. In kind it is functional.
A short description of data set [14]: Cytotoxicity against MT2 cells after 72 hrs. Type of data set: cell-based. Particulars: human.
Data set [15] concerns Human immunodeficiency virus 1. Briefly: Antiviral activity against HIV1 LAI in MT2 cells assessed as inhibition of p24 antigen production. Type of data set: functional, organism-based. As to conditions: Human immunodeficiency virus 1, LAI.

Broadly, the EC50 is the concentration at which the effect is half-maximal. Broadly, the CC50 is the concentration giving 50% cytotoxicity. On to `Nc1nc(=O)c2ncn(C/C=C\CCP(=O)(O)O)c2[nH]1`, for which the concentration giving a half-maximal response (EC50) is greater than 100 µM with Vaccinia virus; greater than 30 µM in the data set with Human alphaherpesvirus 1; 68.4 µM in the data set on Human betaherpesvirus 5; greater than 100 µM in the data set with Cowpox virus; 7.2 µM in the data set with Human alphaherpesvirus 3; greater than 30 µM in the data set on Hepatitis B virus [4]. In addition, the half-maximal cytotoxic concentration (CC50) at 24 h in [1] was 610 µM. For the same compound, the CC50 in data set [2] and in [3] was greater than 100 µM in each case.
Consider `CCCCCCCCCCCCCCCCOCCCOP(=O)(O)CC/C=C\Cn1cnc2c(N)ncnc21`, for which the EC50 with Hepatitis B virus [5] was 9 µM; in the data set on Human gammaherpesvirus 4 it was 0.1 µM; with Vaccinia virus it was greater than 30 µM; in the data set on Hepatitis B virus [6], 10 µM; in the data set with Hepatitis B virus [7] it was 15 µM; in the data set on Hepatitis B virus [9] it was 7.7 µM. The EC50 with Human alphaherpesvirus 1 was 18 µM; in the data set with Hepatitis B virus [10], 9.2 µM; with Human betaherpesvirus 5 it was 15.7 µM; in the data set on Hepatitis B virus [12] it was 8.1 µM; in the data set with Cowpox virus, greater than 20 µM; with Human alphaherpesvirus 3, greater than 20 µM. In the data set with Hepatitis B virus [4], this compound gave an EC50 of 1.5 µM. The CC50 in data set [8] is greater than 100 µM; in data set [11], 110 µM; in data set [2], 43 µM. Also, the CC50 at 24 h in data set [1] is 116 µM. In addition, the “Ratio CC50/EC50” value in data set [13] came to 77.
Take `CCCCCCCCCCCCCCCCOCCCOP(=O)(O)CC/C=C\Cn1ccc(=O)[nH]c1=O`: the EC50 with Vaccinia virus is greater than 100 µM; with Human alphaherpesvirus 1, greater than 30 µM; in the data set with Human betaherpesvirus 5, greater than 20 µM; in the data set with Cowpox virus, greater than 100 µM; in the data set with Hepatitis B virus [4] it was greater than 30 µM. In addition, the CC50 at 24 h in [1] stood at 155 µM. Besides, the CC50 in data set [2] is greater than 100 µM.
Turning to `CCCCCCCCCCCCCCCCOCCCOP(=O)(O)CC/C=C\Cn1cnc2c(=O)nc(N)[nH]c21`, the EC50 is 16 µM in the data set on Hepatitis B virus [5]; 48 µM with Human gammaherpesvirus 4; 7.5 µM with Vaccinia virus; 6.3 µM in the data set with Hepatitis B virus [6]; greater than 100 µM in the data set with Hepatitis B virus [7]; 13 µM in the data set on Hepatitis B virus [9]. For the same compound, the EC50 was 5.8 µM in the data set with Human alphaherpesvirus 1; 8.8 µM in the data set with Hepatitis B virus [10]; 1.8 µM in the data set on Human betaherpesvirus 5; greater than 100 µM in the data set on Hepatitis B virus [12]; 11 µM in the data set with Cowpox virus; 12.2 µM with Human alphaherpesvirus 3. This compound registered a half-maximal effective concentration (EC50) in the data set on Hepatitis B virus [4] of 2.4 µM. Besides, the CC50 at 24 h in data set [1] was greater than 1000 µM. In addition, the CC50 in [11] was 929 µM; in data set [2] it was greater than 100 µM. Further, in [13], the “Ratio CC50/EC50” value is recorded as greater than 417.
In the case of `CCCCCCCCCCCCCCCCOCCCOP(=O)(O)CC/C=C\Cn1ccc(N)nc1=O`, the EC50 was greater than 100 µM in the data set on Hepatitis B virus [5]; greater than 20 µM in the data set on Vaccinia virus; 4 µM in the data set on Hepatitis B virus [6]; greater than 100 µM in the data set on Hepatitis B virus [7]; greater than 100 µM in the data set with Hepatitis B virus [9]; 4.7 µM in the data set on Human alphaherpesvirus 1. Further, the EC50 with Hepatitis B virus [10] was 3.4 µM; with Human betaherpesvirus 5 it was 2.9 µM; in the data set with Hepatitis B virus [12], greater than 100 µM; with Cowpox virus, greater than 20 µM; in the data set with Human alphaherpesvirus 3, 3.7 µM; in the data set on Hepatitis B virus [4], 3.9 µM. Besides, the EC50 in [15] turned out to be 2.5 µM. It took 3.3 µM to reach half-maximal cytotoxicity in data set [14] (CC50 at 72 h). In addition, the CC50 at 24 h in [1] was found to be 621 µM. Further, the CC50 in data set [11] stood at 523 µM; in data set [2], 56 µM. In addition, the “Ratio CC50/EC50” value in [13] came to 159.
In the case of `O=c1nc(O)ccn1C/C=C\CCP(=O)(O)O`, the concentration giving a half-maximal response (EC50) with Vaccinia virus is greater than 100 µM; in the data set with Human alphaherpesvirus 1, greater than 30 µM; in the data set with Human betaherpesvirus 5, greater than 100 µM; in the data set on Cowpox virus, greater than 100 µM; in the data set with Human alphaherpesvirus 3, greater than 300 µM; in the data set with Hepatitis B virus [4] it was greater than 30 µM. In addition, in [1], the half-maximal cytotoxic concentration (CC50) at 24 h was 712 µM. Besides, the CC50 in [2] and in data set [3] was greater than 100 µM in each case.
`Cc1cn(C/C=C\CCP(=O)(O)O)c(=O)[nH]c1=O`: the EC50 in the data set with Vaccinia virus is greater than 100 µM; in the data set with Human alphaherpesvirus 1, greater than 30 µM; in the data set with Human betaherpesvirus 5, greater than 100 µM; in the data set on Cowpox virus, greater than 100 µM; with Human alphaherpesvirus 3, greater than 300 µM; in the data set with Hepatitis B virus [4], greater than 30 µM. Besides, in data set [1], the CC50 at 24 h was 620 µM. Further, the half-maximal cytotoxic concentration (CC50) in data set [2] and in data set [3] was greater than 100 µM in each case.
Regarding `CCCCCCCCCCCCCCCCOCCCOP(=O)(O)CC/C=C\Cn1cc(C)c(=O)[nH]c1=O`, the EC50 with Hepatitis B virus [5] is greater than 100 µM; in the data set with Vaccinia virus, greater than 20 µM; in the data set on Hepatitis B virus [6], 3.8 µM; in the data set on Hepatitis B virus [7], greater than 100 µM; with Hepatitis B virus [9], greater than 100 µM; in the data set on Human alphaherpesvirus 1, 0.9 µM. In addition, the EC50 is 3 µM with Hepatitis B virus [10]; 0.66 µM in the data set with Human betaherpesvirus 5; greater than 100 µM with Hepatitis B virus [12]; greater than 20 µM in the data set on Cowpox virus; 3 µM in the data set with Human alphaherpesvirus 3; 2 µM in the data set on Hepatitis B virus [4]. Also, in data set [15], the EC50 came to 1 µM. The compound also had a cytotoxic concentration (CC50) at 72 h in data set [14] of 1.3 µM. Moreover, in [1], the CC50 at 24 h is 122 µM. The 50% cytotoxic concentration (CC50) in data set [11] was 120 µM; in data set [2] it was greater than 100 µM. In data set [13], the “Ratio CC50/EC50” value is recorded as 61.
On to `Nc1ccn(C/C=C\CCP(=O)(O)O)c(=O)n1`, for which the EC50 in the data set on Vaccinia virus is greater than 100 µM; in the data set on Human alphaherpesvirus 1, greater than 30 µM; in the data set on Human betaherpesvirus 5, greater than 100 µM; with Cowpox virus it was greater than 100 µM; in the data set on Human alphaherpesvirus 3, greater than 60 µM; in the data set with Hepatitis B virus [4], greater than 30 µM. In data set [1], the half-maximal cytotoxic concentration (CC50) at 24 h was found to be 600 µM. For the same compound, the CC50 in data set [2] and in data set [3] was greater than 100 µM in each case.
Regarding `Nc1ncnc2c1ncn2C/C=C\CCP(=O)(O)O`, the EC50 was greater than 4 µM in the data set on Human gammaherpesvirus 4; greater than 100 µM in the data set on Vaccinia virus; greater than 30 µM with Human alphaherpesvirus 1; greater than 100 µM in the data set on Human betaherpesvirus 5; greater than 100 µM with Cowpox virus; greater than 300 µM in the data set on Human alphaherpesvirus 3. The EC50 in the data set on Hepatitis B virus [4] was greater than 30 µM. The CC50 at 24 h in data set [1] amounted to 639 µM. For the same compound, the CC50 in data set [2] and in [3] was greater than 100 µM each time.
